# Data as given in patent US20260174717A1 (Sumitomo Pharma America, Inc., priority 2022, published 2026).
# Marks after values point to notes of the source that are not given here.
# What was measured:
# Male Swiss mice [1] = assay: mouse activity meter test (general locomotor activity); type: in vivo; settings: 4 mg/kg, ip; positive assay control; 30 minutes after dosing, recorded for 30 minutes
# Method: (§1) Thirty minutes later mice were individually placed in transparent plastic cages with 5 cm of sawdust on the floor and 25 marbles grouped in the center of the cage. The number of marbles covered by sawdust (2/3rd or more covered) was counted at the end of the 30 min test. Two days later, general locomotor activity was assessed in the activity meter test in the same animals. Mice were placed in an automated activity meter apparatus 30 minutes after dosing and the number of crossings recorded in 5-minute time bins for 30 minutes. Chlorpromazine (4 mg/kg, i.p.) was included as a positive assay control. […] Locomotor activity was analyzed by one-way ANOVA followed by Dunnett's post-hoc analysis. Effects of clobazam in the marble burying and activity meter tests were examined with the Mann-Whitney U test and unpaired student's t-test, respectively.
# Male Swiss mice [2] = assay: mouse marble burying test; type: in vivo; settings: 8 mg/kg, ip; positive control; 30 min before 30 min test
# Method: as §1
Compound,Number of crossings (Mean ± SEM) (Male Swiss mice [1]),Number of marbles buried (Mean ± SEM) (Male Swiss mice [2])
CN(C)CCCN1c2ccccc2Sc2ccc(Cl)cc21 [Chlorpromazine],3.6 ± 0.7^a,
"CN1C(=O)CC(=O)N(c2ccccc2)c2cc(Cl)ccc21 [Clobazam, clobazam]",,0.5 ± 0.3^a
